The record followed here is EPA's ToxValDB 9.5 (doi:10.2903/j.efsa.2014.3736).

≈ marks a conversion by molar mass, not a printed value.

For data set [1] the following is noted: short-term; duration: 28 days; no effects.
The next data set concerns Anas platyrhynchos. The conditions noted are these: reproductive.
The test system of the next data set is Bibionidae. Conditions: chronic/long-term; duration: 23 days; other.
A further data set concerns Colinus virginianus. The conditions noted are these: acute, oral, mortality.
A further data set deals with Daphnia magna. Conditions: chronic/long-term; duration: 21 days; mortality.
A further data set has as its system Plant. Conditions: chronic/long-term; duration: 28 days; frond number.
A further data set deals with Tagia sp. The conditions noted are these: acute; duration: 14 days; mortality.

In general, NOAEL refers to the highest dose or exposure tested at which no adverse effect was seen. For the molecule `C#CCN1C(=O)COc2cc(F)c(N3C(=O)C4=C(CCCC4)C3=O)cc21` [Flumioxazin], the NOEC stood at 0.15 mg/L in data set [1]; 0.73 mg/kg with Bibionidae; 0.1 mg/L in the data set with Daphnia magna; 0.37 mg/L in the data set with Oncorhynchus mykiss (chronic/long-term, duration: 21 days, growth); 6.3 µg/L in the data set on Plant. The molecule further displayed an NOEL in the data set with Anas platyrhynchos of 34.3 mg/kg-day. Further, the LD50 was above 1510 mg/kg-day with Colinus virginianus (diet); above 2250 mg/kg-day in the data set on Colinus virginianus; above 5000 mg/kg-day with Rattus norvegicus (acute, mortality). Further, the LC50 in the data set on Oncorhynchus mykiss (acute, duration: 96 hours, mortality) was 2.3 µg/mL (≈ 6.49 µM); in the data set with Tagia sp., above 982 mg/kg. Further, the no-observed-adverse-effect level (NOAEL) with Rattus norvegicus (chronic, duration: 2 years, hematological) turned out to be 1.8 mg/kg-day; with Rattus norvegicus (developmental, oral, gavage, development), 10 mg/kg-day; with Rattus norvegicus (reproduction developmental, growth), 7.5 mg/kg-day; in the data set with Rattus norvegicus (subchronic, duration: 90 days, oral, hematological), 2.2 mg/kg-day.
